Data on 22 molecules can be found in US11046699B2, “Pyrazolo-pyrimidin-amino-cycloalkyl compounds and their therapeutic uses” (RAPT THERAPEUTICS, INC., priority 2018, dated 2021).

This test addresses GCN2 (Homo sapiens, UniProt Q9P2K8). In words: GCN2 enzymatic endpoint assay: phosphorylation of GFP-eIF2α measured by TR-FRET (Lanthascreen). In kind it is biochemical. An outline of the steps: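 Read-out is the TR-FRET ratio of acceptor signal at 520 nm to terbium donor at 495 nm, rising with antibody binding to phosphorylated GFP-eIF2α. Endpoint format: 2 μM ATP, 80 nM substrate, 90 minutes at room temperature, EDTA stop.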

[1] abbreviates: tested as described in Example 77, compound and/or hydrochloride, dihydrochloride or trifluoroacetic acid salt, read-out: IC 50 Activity.
Setting [2] is: GCN2 biochemical IC50, 4 nM GCN2, 2 μM ATP, 80 nM GFP-eIF2α, 90 min RT, read-out: GCN2 activity.

Where two headings read alike, the source gives them in different places.

Sequence of GCN2 (Q9P2K8 whole entry): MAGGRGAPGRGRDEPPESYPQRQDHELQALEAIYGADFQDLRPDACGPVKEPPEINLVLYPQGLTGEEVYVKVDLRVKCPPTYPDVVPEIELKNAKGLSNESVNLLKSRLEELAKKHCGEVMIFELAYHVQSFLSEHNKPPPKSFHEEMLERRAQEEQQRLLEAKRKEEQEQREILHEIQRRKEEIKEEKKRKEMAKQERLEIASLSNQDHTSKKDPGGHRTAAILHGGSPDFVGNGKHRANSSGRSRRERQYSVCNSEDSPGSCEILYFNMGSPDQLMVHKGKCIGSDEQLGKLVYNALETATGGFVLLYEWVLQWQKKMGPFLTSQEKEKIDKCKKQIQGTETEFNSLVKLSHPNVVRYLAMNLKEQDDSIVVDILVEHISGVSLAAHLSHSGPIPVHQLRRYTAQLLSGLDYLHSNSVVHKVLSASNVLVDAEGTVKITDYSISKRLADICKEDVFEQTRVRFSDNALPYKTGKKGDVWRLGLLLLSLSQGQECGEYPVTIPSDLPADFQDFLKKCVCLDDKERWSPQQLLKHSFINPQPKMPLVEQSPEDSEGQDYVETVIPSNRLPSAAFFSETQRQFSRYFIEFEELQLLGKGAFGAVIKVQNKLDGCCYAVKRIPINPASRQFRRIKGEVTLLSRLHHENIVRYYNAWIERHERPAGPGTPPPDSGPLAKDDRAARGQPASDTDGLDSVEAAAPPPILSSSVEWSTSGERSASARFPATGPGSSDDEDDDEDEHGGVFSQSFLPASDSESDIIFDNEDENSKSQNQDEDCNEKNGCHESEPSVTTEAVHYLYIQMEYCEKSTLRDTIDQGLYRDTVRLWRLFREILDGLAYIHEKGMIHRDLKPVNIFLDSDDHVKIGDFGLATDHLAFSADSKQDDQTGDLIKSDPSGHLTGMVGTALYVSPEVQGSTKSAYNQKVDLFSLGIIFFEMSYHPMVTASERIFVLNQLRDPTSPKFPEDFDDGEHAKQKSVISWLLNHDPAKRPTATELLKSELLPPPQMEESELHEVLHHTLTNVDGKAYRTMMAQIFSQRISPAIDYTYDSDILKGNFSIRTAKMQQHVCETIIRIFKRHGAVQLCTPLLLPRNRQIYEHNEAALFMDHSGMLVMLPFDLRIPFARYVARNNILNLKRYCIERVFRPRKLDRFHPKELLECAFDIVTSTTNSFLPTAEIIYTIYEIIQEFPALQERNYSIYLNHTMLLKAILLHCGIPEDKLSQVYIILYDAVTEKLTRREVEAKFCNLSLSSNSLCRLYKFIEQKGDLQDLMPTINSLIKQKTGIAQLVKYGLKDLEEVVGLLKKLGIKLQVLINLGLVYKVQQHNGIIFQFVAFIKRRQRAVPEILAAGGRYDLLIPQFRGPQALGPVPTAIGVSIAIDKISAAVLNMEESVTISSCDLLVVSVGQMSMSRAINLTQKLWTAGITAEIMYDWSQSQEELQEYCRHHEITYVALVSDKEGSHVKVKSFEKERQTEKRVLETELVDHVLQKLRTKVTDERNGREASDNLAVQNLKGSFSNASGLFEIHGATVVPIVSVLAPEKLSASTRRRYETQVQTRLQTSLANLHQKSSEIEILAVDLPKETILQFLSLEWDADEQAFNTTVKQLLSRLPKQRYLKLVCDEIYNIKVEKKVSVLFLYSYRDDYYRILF

On to `CC1(C(=O)NCC(F)(F)F)CC[C@@H](Nc2ncc3c(Br)nn(-c4cc(F)c5ncccc5c4)c3n2)C1` (stereo partly drawn) [(3R)-3-[[3-bromo-1-(8-fluoro-6-quinolyl)pyrazolo[3,4-d]pyrimidin-6-yl]amino]-1-methyl-N-(2,2,2-trifluoroethyl)cyclo-pentanecarboxamide], for which the IC50 under setting [1] was 25 to 200 nM.

Turning to `CN1CCN(C(=O)[C@@H]2CC[C@@H](Nc3ncc4c(Br)nn(-c5ccc(-c6cccnc6)c(F)c5)c4n3)C2)CC1=O` [Example 27, 4-((1R,3R)-3-((3-bromo-1-(3-fluoro-4-(pyridin-3-yl)phenyl)-1H-pyrazolo[3,4-d]pyrimidin-6-yl)amino)cyclopentane-1-carbonyl)-1-methylpiperazin-2-one], under setting [2], the IC50 is 500 to 1000 nM.

Consider `CNC(=O)[C@]1(C)CC[C@@H](Nc2ncc3c(Br)nn(-c4ccc(-c5nnc(C)s5)c(CC(O)C(F)(F)F)c4)c3n2)C1` (stereo partly drawn) [(1R,3R)-3-[[3-bromo-1-[4-(5-methyl-1,3,4-thiadiazol-2-yl)-3-(3,3,3-trifluoro-2-hydroxy-propyl)phenyl]pyrazolo[3,4-d]pyrimidin-6-yl]amino]-N,1-dimethyl-cyclopentane-carboxamide], for which the IC50 under setting [1] was in the range of 25 to 200 nM.

As to `CNC(=O)[C@]1(C)CC[C@@H](Nc2ncc3c(Br)nn(-c4cc(F)c5nc(C(C)(C)N)ccc5c4)c3n2)C1` [(1R,3R)-3-[[1-[2-(1-amino-1-methyl-ethyl)-8-fluoro-6-quinolyl]-3-bromo-pyrazolo[3,4-d]pyrimidin-6-yl]amino]-N,1-dimethyl-cyclopentanecarboxamide], under setting [1], the IC50 fell in the range of 25 to 200 nM.

In the case of `CC(C)(NC(=O)[C@@H]1CC[C@@H](Nc2ncc3c(Br)nn(-c4cc(C#N)c5ncccc5c4)c3n2)C1)C(N)=O`, under setting [1], the IC50 was less than 25 nM.

On to `CNC(=O)[C@]1(C)CC[C@@H](Nc2ncc3c(Br)nn(-c4ccc5c(c4)CCCN5)c3n2)C1` [(1R,3R)-3-[[3-bromo-1-(1,2,3,4-tetra-hydroquinolin-6-yl)pyrazolo[3,4-d]pyrimidin-6-yl]amino]-N,1-dimethyl-cyclopentanecarboxamide], for which, under setting [1], the IC50 lay in the range of 25 to 200 nM.

`CNC(=O)[C@]1(CC(F)F)CC[C@@H](Nc2ncc3c(Br)nn(-c4ccc(-c5cnccn5)cc4)c3n2)C1` [(1R,3R)-3-[[3-bromo-1-(4-pyrazin-2-ylphenyl)pyrazolo[3,4-d]pyrimidin-6-yl]amino]-1-(2,2-difluoroethyl)-N-methyl-cyclopentanecarboxamide]: the IC50 under setting [1] lay in the range of 25 to 200 nM.

Turning to `CNC(=O)[C@]1(C)CC[C@@H](Nc2ncc3c(Br)nn(-c4ccc(-c5nnc(C)s5)c(CCN(C)C)c4)c3n2)C1` [Example 63, (1R,3R)-3-((3-bromo-1-(3-(2-(dimethylamino)ethyl)-4-(5-methyl-1,3,4-thiadiazol-2-yl)phenyl)-1H-pyrazolo[3,4-d]pyrimidin-6-yl)amino)-N,1-dimethylcyclopentane-1-carboxamide; 2,2,2-trifluoroacetic acid], the IC50 under setting [2] fell in the range of 25 to 200 nM.

With `CNC(=O)[C@]1(C)CC[C@@H](Nc2ncc3c(Br)nn(-c4ccc5c(c4)CCN(C(=O)C4CN(C)C4)C5)c3n2)C1` [(1R,3R)-3-[[3-bromo-1-[2-(1-methylazetidine-3-carbonyl)-3,4-dihydro-1H-isoquinolin-6-yl]pyrazolo[3,4-d]pyrimidin-6-yl]amino]-N,1-dimethyl-cyclopentanecarboxamide], the IC50 under setting [1] is 25 to 200 nM.

With `CNC(=O)[C@]1(C)CC[C@@H](Nc2ncc3c(Br)nn(-c4ccc5nccc(=O)n5c4)c3n2)C1` [(1R,3R)-3-[[3-bromo-1-(4-oxopyrido [1,2-a]pyrimidin-7-yl)pyrazolo[3,4-d]pyrimidin-6-yl]amino]-N,1-dimethyl-cyclopentanecarboxamide], the IC50 under setting [1] lay within 25 to 200 nM.

With `CNC(=O)C1(C)CC[C@@H](Nc2ncc3c(Br)nn(-c4ccc5cnccc5c4)c3n2)C1` (mixture of isomers), the IC50 under setting [1] lay within 200 to 500 nM.

Consider `CNC(=O)[C@]1(C)CC[C@@H](Nc2ncc3c(Br)nn(-c4ccc(-c5nnc(C6CC6)o5)cc4)c3n2)C1` [(1R,3R)-3-[[3-bromo-1-[4-(5-cyclopropyl-1,3,4-oxadiazol-2-yl)phenyl]pyrazolo[3,4-d]pyrimidin-6-yl]amino]-N,1-dimethyl-cyclopentane-carboxamide], for which the IC50 under setting [1] fell in the range of 25 to 200 nM.

`COCCNC(=O)[C@@H]1CC[C@@H](Nc2ncc3c(Br)nn(-c4cnc5ccc(F)cc5c4)c3n2)C1` [(1R,3R)-3-((3-bromo-1-(6-fluoroquinolin-3-yl)-1H-pyrazolo[3,4-d]pyrimidin-6-yl)amino)-N-(2-methoxyethyl)cyclopentane-1-carboxamide]: the IC50 under setting [1] was in the range of 500 to 1000 nM.

Regarding `CNC(=O)[C@]1(C)CC[C@@H](Nc2ncc3c(Br)nn(-c4ccc5c(c4)CN(C(=O)CO)CC5)c3n2)C1` [(1R,3R)-3-[[3-bromo-1-[2-(2-hydroxyacetyl)-3,4-dihydro-1H-isoquinolin-7-yl]pyrazolo [3,4-d]pyrimidin-6-yl]amino]-N,1-dimethyl-cyclopentanecarboxamide], under setting [1], the IC50 fell in the range of 25 to 200 nM.

Consider `C[C@@]1(C(=O)N2CCNC(=O)C2)CC[C@@H](Nc2ncc3c(Br)nn(-c4cc(F)c5ncccc5c4)c3n2)C1` [4-[(1R,3R)-3-[[3-bromo-1-(8-fluoro-6-quinolyl)pyrazolo[3,4-d]pyrimidin-6-yl]amino]-1-methyl-cyclopentanecarbonyl] piperazin-2-one], for which, under setting [1], the IC50 was less than 25 nM.

Consider `CNC(=O)[C@]1(C)CC[C@@H](Nc2ncc3c(Br)nn(-c4cccc(NC(=O)c5ccn[nH]5)c4)c3n2)C1` [N-[3-[3-bromo-6-[[(1R,3R)-3-methyl-3-(methylcarbamoyl)cyclopentyl]amino]pyrazolo[3,4-d]pyrimidin-1-yl]phenyl]-1H-pyrazole-5-carboxamide], for which the IC50 under setting [1] was 25 to 200 nM.

Take `O=C(NCCN1CCNC1=O)[C@@H]1CC[C@@H](Nc2ncc3c(Br)nn(-c4cc(F)c5ncccc5c4)c3n2)C1` [(1R,3R)-3-((3-bromo-1-(8-fluoroquinolin-6-yl)-1H-pyrazolo[3,4-d]pyrimidin-6-yl)amino)-N-(2-(2-oxoimidazolidin-1-yl)ethyl)cyclo-pentane-1-carboxamide]: the IC50 under setting [1] lay in the range of 25 to 200 nM.

On to `Fc1cc(-n2nc(Br)c3cnc(NC4COC4)nc32)cc2cccnc12` [3-bromo-1-(8-fluoro-6-quinolyl)-N-(oxetan-3-yl)pyrazolo[3,4-d]pyrimidin-6-amine], for which the IC50 under setting [1] fell in the range of 25 to 200 nM.

In the case of `NC(=O)[C@@H]1CC[C@@H](Nc2ncc3c(Br)nn(-c4cc(F)c5ncccc5c4)c3n2)C1` [Example 12, (1R,3R)-3-((3-bromo-1-(8-fluoroquinolin-6-yl)-1H-pyrazolo[3,4-d]pyrimidin-6-yl)amino)cyclopentane-1-carboxamide], under setting [2], the IC50 lay in the range of 25 to 200 nM.

In the case of `Cc1nnc(-c2ccc(-n3nc(Br)c4cnc(N[C@@H]5CC[C@@H](NC(=O)[C@@H]6CCCCN6)C5)nc43)cc2)s1`, the IC50 under setting [1] is 25 to 200 nM.

On to `CNC(=O)[C@]1(C)CC[C@@H](Nc2ncc3c(Br)nn(-c4ccc(-c5nnc(C(=O)NCCN(C)C)s5)cc4)c3n2)C1` [5-[4-[3-bromo-6-[[(1R,3R)-3-methyl-3-(methylcarbamoyl)cyclopentyl]amino]pyrazolo[3,4-d]pyrimidin-1-yl]phenyl]-N-[2-(dimethylamino)ethyl]-1,3,4-thiadiazole-2-carboxamide], for which the IC50 under setting [1] is 25 to 200 nM.

Consider `CNC(=O)[C@]1(C)CC[C@@H](Nc2ncc3c(Br)nn(-c4ccc5cncnc5c4)c3n2)C1`, for which the IC50 under setting [1] lay in the range of 25 to 200 nM.
